Laboratory results: article PMC9371699, “Cell-penetrating peptides enhance peptide vaccine accumulation and persistence in lymph nodes to drive immunogenicity” (Proceedings of the National Academy of Sciences of the …, 2022)
Ends that are not written are not given here.

How the values were obtained:
proteinase K = proteinase K (Parengyodontium album, UniProt P06873); test: Proteolysis LC-MS assay; type: in vitro ADME; conditions: 5 µM peptide in PBS, 0.5 ng proteinase K, 37 °C, 2 hours, time points 0, 30, 60, 120 min, LC-MS (Q-TOF), no other serum components
From the text: To gain more direct evidence of altered peptide stability, we used quadrupole time-of-flight liquid chromatography/MS (LC-QTOF-MS), to directly detect proteolytic degradation of pAntp and MPG conjugates in serum. […] We hypothesized that enhanced stability of the conjugates could reflect an intrinsic protective peptidase-/protease-blocking effect by the CPP or be an indirect effect mediated by binding of the conjugate to other serum proteins that sterically interfere with protease attack on the peptide. To distinguish these possibilities, we performed a similar experiment assessing proteolytic stability in the presence of purified proteinase K—a promiscuous protease that cleaves peptide bonds following hydrophobic amino acids—in the absence of other serum components.
C18 column (2 μm particle size, 15 cm × 50 μm ID; Thermo Fisher Scientific). Mobile phase A was 0.1% formic acid in ultrapure water (v/v) and mobile phase B was 80% acetonitrile, 0.1% formic acid in ultrapure water (v/v). The nano-LC method was as follows: 1% B ramping in a linear manner to 41% B in A over 120 minutes, flow rate: 300 nL/min. Data were processed using PEAKS proteomics software.
Serum stability LC-MS assay. […]
Proteolysis LC-MS Assay. […] They were then resuspended 50:50 water:acetonitrile with 0.1% trifluoroacetic acid and reaction analyzed on an Agilent 6550 iFunnel Q -TOF MS. […]

[1] = T cell activation-based serum stability assay; type: in vitro ADME; conditions: 30 µM peptide in RPMI-1640 + 10% fresh mouse serum, 24 h, 37 °C, vs fresh peptide; titrated on splenocytes, CD69 read-out by flow cytometry
Method: Peptides are also highly susceptible to proteolytic cleavage, resulting in a short half-life in vivo ([65], [66]). […] To test if the association of antigen-CPPs with serum components impacts peptide antigen stability, we used an in vitro antigen-presentation assay to functionally determine if T cells could still be activated by antigen-CPPs after incubation with serum proteases ([22]). Free gp100 peptide or gp100-CPP peptides were incubated for 24 h in 10% mouse serum, then added to splenocytes at titrated doses for 1 h to allow antigen uptake and processing, followed by culture with pmel-1 (gp100–specific) T cells for 24 h and assessment of pmel-1 CD69 expression (Fig. 6A and SI Appendix, Fig. S13). From these cocultures, we determined the peptide antigen concentration required for 50% of maximal CD69 up-regulation by the pmel-1 T cells (EC50) (Fig. 6B) and the change in EC50 for peptides preincubated with serum (ΔEC50) (Fig. 6C). […] In contrast, the ΔEC50 for gp100-CPPs ranged from 0.76 to 3.4 (Fig. 6C).
Following prime and boost of mice with gp100 peptides, CD8^+ T cell responses were confirmed on day −1. […] CD69^+/CD8^+ T cell responses were measured by flow cytometry.
Figure S13. […] Shown are plots of pmel activation, measured via CD69 upregulation, against the concentration of the fresh or serum -treated construct. […]

Sequence of proteinase K (P06873 106-384, species assumed): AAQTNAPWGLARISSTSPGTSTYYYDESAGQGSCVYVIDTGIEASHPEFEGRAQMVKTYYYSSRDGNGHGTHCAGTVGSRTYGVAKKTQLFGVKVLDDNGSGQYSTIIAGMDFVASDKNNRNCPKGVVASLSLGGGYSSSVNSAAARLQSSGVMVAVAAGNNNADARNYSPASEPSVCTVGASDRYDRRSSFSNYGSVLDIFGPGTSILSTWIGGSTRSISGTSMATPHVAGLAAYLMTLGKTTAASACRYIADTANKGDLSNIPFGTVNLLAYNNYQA

AVGALEGPRNQDWLGVPRQL-NH2 [gp100]
proteolytic stability with purified proteinase K (proteinase K): rapid degradation
increase in EC50 (CD69 up-regulation) after incubation in serum [1]: ~16 fold
